Among the data in PubChem BioAssay AID330 (DTP/NCI, 2004) are T/C values, retold here.

For the experiment, the system named is P388 leukemia ip, CD2F1 mice, survival T/C. As to the kind of experiment: NCI In Vivo Anticancer Drug Screen. Data for tumor model P388 Leukemia (intraperitoneal) in CD2F1 (CDF1) mice. To be noted: endpoint: median survival time, higher = longer survival. In outline:
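Mice carrying the transplanted tumor received test compound or vehicle. Survival was recorded in each group, and the value is the treated-group measurement divided by that of the vehicle-treated control group.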

Several values for one entry are separate records, joined by “and”; a condition that tells them apart may be missing. Equal values may be shown once. Inconclusive results and toxic doses are left out.

`Cc1cc(O)c(C=O)c2c1C(=O)Oc1c(COC(=O)/C=C/C(=O)O)c(O)c(C(=O)O)c(C)c1O2`: the T/C is 104 % of control (dose: 0.25 mg/kg/injection, schedule: Q01DX009 (ip), vehicle: saline with Tween-80); 96 % of control (dose: 0.5 mg/kg/injection, schedule: Q01DX009 (ip), vehicle: saline with Tween-80); 101 % of control (dose: 1.0 mg/kg/injection, schedule: Q01DX009 (ip), vehicle: saline with Tween-80); 90 % of control (dose: 50.0 mg/kg/injection, schedule: Q01DX009 (ip), vehicle: saline); 90 % of control (dose: 100.0 mg/kg/injection, schedule: Q01DX009 (ip), vehicle: saline).
As for `CCOC(=O)C(C(=O)OCC)=C(C)/C=C/C(Cl)(Cl)Cl`, the T/C by setting is: (dose: 100.0 mg/kg/injection, schedule: Q04DX002 (ip), vehicle: saline with Tween-80) 110 % of control; (dose: 200.0 mg/kg/injection, schedule: Q04DX002 (ip), vehicle: saline with Tween-80) 102 % of control; (dose: 400.0 mg/kg/injection, schedule: Q04DX002 (ip), vehicle: saline with Tween-80) 98 % of control.
As to `O=C1Nc2ccccc2C12Nc1ccccc1N2`, the T/C (dose: 25.0 mg/kg/injection, schedule: Q04DX003 (ip), vehicle: Klucel (hydroxypropylcellulose) (HPC)) is 108 % of control; the T/C (dose: 50.0 mg/kg/injection, schedule: Q04DX003 (ip), vehicle: Klucel (hydroxypropylcellulose) (HPC)) was 95 % of control; the T/C (dose: 100.0 mg/kg/injection, schedule: Q04DX003 (ip), vehicle: Klucel (hydroxypropylcellulose) (HPC)) is 97 % of control; the T/C (dose: 200.0 mg/kg/injection, schedule: Q04DX003 (ip), vehicle: Klucel (hydroxypropylcellulose) (HPC)) is 90 % of control and 91 % of control.
On to `CC[CH](C)[Sn](=[O])[c]1ccccc1` (configuration not stated), for which the T/C reads like this: (dose: 0.39 mg/kg/injection, schedule: Q01DX009 (ip), vehicle: saline) 101 % of control; (dose: 0.79 mg/kg/injection, schedule: Q01DX009 (ip), vehicle: saline) 117 % of control; (dose: 3.12 mg/kg/injection, schedule: Q01DX009 (ip), vehicle: saline with Tween-80) 153 % of control.
In the case of `CC(=O)OC1C=CC2OC2(COC(=O)c2ccccc2)C1OC(C)=O` (configuration not stated), the T/C (dose: 2.5 mg/kg/injection, schedule: Q01DX009 (ip), vehicle: Klucel (hydroxypropylcellulose) (HPC)) was 87 % of control; the T/C (dose: 5.0 mg/kg/injection, schedule: Q01DX009 (ip), vehicle: Klucel (hydroxypropylcellulose) (HPC)) is 99 % of control; the T/C (dose: 10.0 mg/kg/injection, schedule: Q01DX009 (ip), vehicle: Klucel (hydroxypropylcellulose) (HPC)) is 92 % of control; the T/C (dose: 28.75 mg/kg/injection, schedule: Q01DX005 (ip), vehicle: saline + Tween-80 + alcohol) is 100 % of control; the T/C (dose: 57.5 mg/kg/injection, schedule: Q01DX005 (ip), vehicle: saline + Tween-80 + alcohol) is 102 % of control; the T/C (dose: 115.0 mg/kg/injection, schedule: Q01DX005 (ip), vehicle: saline + Tween-80 + alcohol) was 100 % of control. The T/C (dose: 230.0 mg/kg/injection, schedule: Q01DX005 (ip), vehicle: saline + Tween-80 + alcohol) is 100 % of control.
On to `CS(=O)(=O)N/N=C(\N)Oc1ccc(Cl)cc1Cl`, for which the T/C runs as follows: (dose: 60.0 mg/kg/injection, schedule: Q01DX005 (ip), vehicle: saline with Tween-80) 97 % of control; (dose: 120.0 mg/kg/injection, schedule: Q01DX005 (ip), vehicle: saline with Tween-80) 93 % of control; (dose: 240.0 mg/kg/injection, schedule: Q01DX005 (ip), vehicle: saline with Tween-80) 88 % of control.
On to `COc1cc(C2N=C(N)N=C(N)N2c2ccc(S(N)(=O)=O)cc2)cc(OC)c1OC` (configuration not stated), for which the T/C is 103 % of control (dose: 60.0 mg/kg/injection, schedule: Q01DX005 (ip), vehicle: Klucel (hydroxypropylcellulose) (HPC)) and 103 % of control (dose: 120.0 mg/kg/injection, schedule: Q01DX005 (ip), vehicle: Klucel (hydroxypropylcellulose) (HPC)).
As for `C/C1=C2N=C(/C=C3N=C(/C(C)=C4\[N-]C(C(CC(N)=O)C4(C)CCC(=O)NCC(C)OP(=O)(O)OC4C(CO)OC(n5cnc6cc(C)c(C)cc65)C4O)C4(C)N=C1C(CCC(N)=O)C4(C)CC(N)=O)C(CCC(N)=O)C\3(C)C)C(CCC(N)=O)C/2(C)CC(N)=O.[CH2-]C1OC(n2cnc3c(N)ncnc32)C(O)C1O.[Co+2]` (configuration not stated), the T/C (dose: 8.8 micrograms/kg/injection, schedule: Q#A X Z (ip), vehicle: water) was 90 % of control; the T/C (dose: 88.3 micrograms/kg/injection, schedule: Q#A X Z (ip), vehicle: water) was 97 % of control; the T/C (dose: 8830.0 micrograms/kg/injection, schedule: Q#A X Z (ip), vehicle: water) is 89 % of control.
For `CNC(=O)c1ccccc1NC(=O)CCC(=O)O`, the T/C by setting is: (dose: 100.0 mg/kg/injection, schedule: Q04DX003 (ip), vehicle: saline) 100 % of control; (dose: 200.0 mg/kg/injection, schedule: Q04DX003 (ip), vehicle: saline) 99 % of control; (dose: 400.0 mg/kg/injection, schedule: Q04DX003 (ip), vehicle: saline) 100 % of control.
On to `COC(=O)Nc1cnc(C)c(C)c1-c1ccc(OC)c(OC)c1OCc1ccccc1`, for which the T/C was 96 % of control (dose: 0.05 mg/kg/injection, schedule: Q01DX009 (ip), vehicle: water); 111 % of control (dose: 0.1 mg/kg/injection, schedule: Q01DX009 (ip), vehicle: water); 110 % of control (dose: 0.2 mg/kg/injection, schedule: Q01DX009 (ip), vehicle: water); 104 % of control and 105 % of control (dose: 0.4 mg/kg/injection, schedule: Q01DX009 (ip), vehicle: water); 106 % of control (dose: 0.8 mg/kg/injection, schedule: Q01DX009 (ip), vehicle: water); 109 % of control (dose: 1.6 mg/kg/injection, schedule: Q01DX009 (ip), vehicle: water). Also, the T/C runs as follows: (dose: 3.2 mg/kg/injection, schedule: Q01DX009 (ip), vehicle: water) 103 % of control; (dose: 6.25 mg/kg/injection, schedule: Q01DX009 (ip), vehicle: other) 103 % of control; (dose: 6.4 mg/kg/injection, schedule: Q01DX009 (ip), vehicle: water) 104 % of control; (dose: 12.5 mg/kg/injection, schedule: Q01DX009 (ip), vehicle: other) 103 % of control; (dose: 25.0 mg/kg/injection, schedule: Q01DX009 (ip), vehicle: other) 104 % of control; (dose: 50.0 mg/kg/injection, schedule: Q01DX009 (ip), vehicle: other) 98 % of control. The T/C (dose: 100.0 mg/kg/injection, schedule: Q01DX009 (ip), vehicle: other) is 108 % of control; the T/C (dose: 200.0 mg/kg/injection, schedule: Q01DX009 (ip), vehicle: other) was 99 % of control; the T/C (dose: 400.0 mg/kg/injection, schedule: Q01DX009 (ip), vehicle: other) was 99 % of control.
As to `O=C(Nc1ccc(NC(=O)Nc2cccc(C3=NCCCN3)c2)cc1)Nc1ccc(C2=NCCCN2)cc1`, the T/C (dose: 2.5 mg/kg/injection, schedule: Q01DX009 (ip), vehicle: saline with Tween-80) is 113 % of control; the T/C (dose: 5.0 mg/kg/injection, schedule: Q04DX003 (ip), vehicle: saline with Tween-80) is 100 % of control; the T/C (dose: 10.0 mg/kg/injection, schedule: Q04DX003 (ip), vehicle: saline with Tween-80) is 109 % of control.
Consider `CC(C)C1=CC2=C(C(=O)C1=O)C13CCCC(C)(C)C1CC2OC3=O` (configuration not stated), for which the T/C is 105 % of control (dose: 7.0 mg/kg/injection, schedule: Q01DX005 (ip), vehicle: saline with Tween-80); 104 % of control (dose: 14.0 mg/kg/injection, schedule: Q01DX005 (ip), vehicle: saline with Tween-80); 109 % of control (dose: 28.0 mg/kg/injection, schedule: Q01DX005 (ip), vehicle: saline with Tween-80).
`O=C(O)c1ccc(N=NNc2ccc(C(=O)O)cc2)cc1`: the T/C is 96 % of control (dose: 50.0 mg/kg/injection, schedule: Q01DX009 (ip), vehicle: Klucel (hydroxypropylcellulose) (HPC)); 99 % of control (dose: 100.0 mg/kg/injection, schedule: Q01DX009 (ip), vehicle: Klucel (hydroxypropylcellulose) (HPC)); 95 % of control (dose: 200.0 mg/kg/injection, schedule: Q01DX009 (ip), vehicle: Klucel (hydroxypropylcellulose) (HPC)); 96 % of control (dose: 400.0 mg/kg/injection, schedule: Q01DX009 (ip), vehicle: Klucel (hydroxypropylcellulose) (HPC)).
In the case of `CN(C)CCOc1ccccc1NC1=C(Cl)C(=O)C(Nc2ccccc2OCCN(C)C)=C(Cl)C1=O`, the T/C is, setting by setting: (dose: 3.12 mg/kg/injection, schedule: Q01DX005 (ip), vehicle: saline) 96 % of control and 97 % of control; (dose: 6.25 mg/kg/injection, schedule: Q01DX005 (ip), vehicle: saline) 105 % of control and 106 % of control and 98 % of control; (dose: 12.5 mg/kg/injection, schedule: Q01DX005 (ip), vehicle: saline) 110 % of control and 114 % of control and 116 % of control; (dose: 25.0 mg/kg/injection, schedule: Q01DX005 (ip), vehicle: saline) 105 % of control and 117 % of control and 121 % of control.
